The values below come from publication PMC6521598, “Identification of GLPG/ABBV-2737, a Novel Class of Corrector, Which Exerts Functional Synergy With Other CFTR Modulators” (Frontiers in Pharmacology, 2019).

The structures appear in SMILES notation.

One experiment concerns the target F508del CFTR (Homo sapiens, UniProt P13569, DEL508-508). The experiment in a line: Western blot (Band B/C) in CSE-MEM cells. In kind it is cell-based. Also noted: University of North Carolina; host or cells: primary human bronchial epithelial cells, F508del/F508del donors. Particulars: 24 h, compound alone. The method, then: For Western blot, U2OS EA-MEM F508del CFTR (CSE-MEM) cells were seeded in six well plates at a density of 2.5e6 cells/well on day 1 and incubated at 37°C and 5% CO2. Cells were treated with corrector compounds on day 2 and were lysed 24 h later. For the lysis, cells were washed with 1 ml PBS and incubated with 300 μl cell dissociation solution/well (Sigma, Cat No. C5789-100ML) for 15 min at 37°C and 5% CO2. Medium was collected and centrifuged for 5 min at 1,000 rpm and the supernatant removed. The pellet was re-suspended for 30 min on ice in the lysis buffer containing 1% NP-40, 0.5% sodium deoxycholate, 200 mM NaCl, 10 mM Tris pH 7.8, 1 mM EDTA and a protease inhibitor cocktail tablet from Roche (Cat No. 11873580001). For gel electrophoresis, 2.5 μl 10X Nupage reducing agent (Invitrogen, Cat No. NP0004) and 6 μl 4X Nupage sample buffer (Invitrogen, Cat No. NP0007) were added to 17 μl lysate and incubated for 15 min at 37°C. […]
On the technique in general: A western blot detects proteins with antibodies after separation by electrophoresis.

Another experiment has as its target wild type CFTR (Homo sapiens, UniProt P13569). The experiment in a line: YFP halide assay, HEK293 cells transfected with wild type CFTR. In kind it is cell-based. Also noted: expressed in transfected cells; host or cells: HEK293. The method, then: HEK293 cells were transfected with 10–80 ng of plasmid encoding F508del, E92K, P67L, V232D, F508del/G550E, F508del/I539T or wild type CFTR and 20 ng of plasmid encoding YFP (H148Q/I152L/F47L) using jetPEI (Polyplus transfection). Directly after transfection, cells were seeded in black 96-well plates coated with poly-D-lysine at a density of 70,000 cells per well. The next day, cells were treated with corrector(s) for 24 h. After this incubation period, cells were washed twice with DPBS with Ca^2+ and Mg^2+. […] YFP fluorescence was measured using an EnVision plate reader (PerkinElmer). […] The capacity of potentiators to increase CFTR channel function was expressed as 1-(fluorescence 7 s after NaI addition (F)/fluorescence before NaI addition (F0)). […]
Due to the lack of any forskolin activated current upon correction of F508del carrying cells with GLPG2737, we wondered whether GLPG2737 would have an effect on wild type CFTR activity. […] Similar to the observations in the 24 h incubation experiment, a decrease in wild type channel activity was measured with increasing amounts of GLPG2737 (Figure 6B). Since the YFP halide assay was performed using an overexpressing cell system that might not be physiologically relevant, GLPG2737 was also evaluated on normal HBE cells.

wild type CFTR, sequence (P13569 whole entry): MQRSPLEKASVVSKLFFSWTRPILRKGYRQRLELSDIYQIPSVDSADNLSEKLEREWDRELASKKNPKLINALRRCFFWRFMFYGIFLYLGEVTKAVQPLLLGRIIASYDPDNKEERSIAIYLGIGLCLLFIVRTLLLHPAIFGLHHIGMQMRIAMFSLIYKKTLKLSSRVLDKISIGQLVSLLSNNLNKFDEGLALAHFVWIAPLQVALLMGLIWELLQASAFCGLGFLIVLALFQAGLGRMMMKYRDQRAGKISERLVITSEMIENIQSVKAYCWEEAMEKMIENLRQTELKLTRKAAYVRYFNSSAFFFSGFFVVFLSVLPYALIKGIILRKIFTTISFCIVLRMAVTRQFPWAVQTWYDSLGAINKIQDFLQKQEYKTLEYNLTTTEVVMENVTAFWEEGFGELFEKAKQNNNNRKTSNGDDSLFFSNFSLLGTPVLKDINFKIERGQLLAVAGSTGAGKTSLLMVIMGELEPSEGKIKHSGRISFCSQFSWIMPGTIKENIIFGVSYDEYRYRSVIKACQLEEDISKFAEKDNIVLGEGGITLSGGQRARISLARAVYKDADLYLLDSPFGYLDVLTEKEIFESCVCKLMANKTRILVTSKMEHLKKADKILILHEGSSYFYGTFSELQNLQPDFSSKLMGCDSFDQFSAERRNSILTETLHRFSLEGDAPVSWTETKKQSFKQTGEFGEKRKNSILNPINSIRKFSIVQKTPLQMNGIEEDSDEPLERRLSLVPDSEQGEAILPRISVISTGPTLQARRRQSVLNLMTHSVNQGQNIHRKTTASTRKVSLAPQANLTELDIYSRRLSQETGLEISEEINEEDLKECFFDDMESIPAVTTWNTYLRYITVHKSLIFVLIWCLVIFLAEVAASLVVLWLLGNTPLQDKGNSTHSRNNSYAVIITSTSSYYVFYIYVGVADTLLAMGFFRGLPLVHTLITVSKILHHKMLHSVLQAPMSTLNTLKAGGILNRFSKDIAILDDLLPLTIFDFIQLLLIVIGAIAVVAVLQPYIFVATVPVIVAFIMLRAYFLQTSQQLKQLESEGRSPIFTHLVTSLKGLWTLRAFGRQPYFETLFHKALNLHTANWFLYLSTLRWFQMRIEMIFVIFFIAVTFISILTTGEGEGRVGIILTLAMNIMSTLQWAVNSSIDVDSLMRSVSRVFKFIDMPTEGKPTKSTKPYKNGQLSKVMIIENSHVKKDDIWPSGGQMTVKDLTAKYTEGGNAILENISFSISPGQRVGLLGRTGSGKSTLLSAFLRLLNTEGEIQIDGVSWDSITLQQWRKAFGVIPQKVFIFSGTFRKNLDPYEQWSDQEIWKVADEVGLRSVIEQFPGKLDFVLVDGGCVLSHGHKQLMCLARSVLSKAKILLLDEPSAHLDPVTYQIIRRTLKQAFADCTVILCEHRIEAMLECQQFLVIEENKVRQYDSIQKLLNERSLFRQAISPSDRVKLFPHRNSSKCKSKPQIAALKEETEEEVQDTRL
F508del CFTR, sequence (P13569 with tags, fused parts or gaps DEL508-508): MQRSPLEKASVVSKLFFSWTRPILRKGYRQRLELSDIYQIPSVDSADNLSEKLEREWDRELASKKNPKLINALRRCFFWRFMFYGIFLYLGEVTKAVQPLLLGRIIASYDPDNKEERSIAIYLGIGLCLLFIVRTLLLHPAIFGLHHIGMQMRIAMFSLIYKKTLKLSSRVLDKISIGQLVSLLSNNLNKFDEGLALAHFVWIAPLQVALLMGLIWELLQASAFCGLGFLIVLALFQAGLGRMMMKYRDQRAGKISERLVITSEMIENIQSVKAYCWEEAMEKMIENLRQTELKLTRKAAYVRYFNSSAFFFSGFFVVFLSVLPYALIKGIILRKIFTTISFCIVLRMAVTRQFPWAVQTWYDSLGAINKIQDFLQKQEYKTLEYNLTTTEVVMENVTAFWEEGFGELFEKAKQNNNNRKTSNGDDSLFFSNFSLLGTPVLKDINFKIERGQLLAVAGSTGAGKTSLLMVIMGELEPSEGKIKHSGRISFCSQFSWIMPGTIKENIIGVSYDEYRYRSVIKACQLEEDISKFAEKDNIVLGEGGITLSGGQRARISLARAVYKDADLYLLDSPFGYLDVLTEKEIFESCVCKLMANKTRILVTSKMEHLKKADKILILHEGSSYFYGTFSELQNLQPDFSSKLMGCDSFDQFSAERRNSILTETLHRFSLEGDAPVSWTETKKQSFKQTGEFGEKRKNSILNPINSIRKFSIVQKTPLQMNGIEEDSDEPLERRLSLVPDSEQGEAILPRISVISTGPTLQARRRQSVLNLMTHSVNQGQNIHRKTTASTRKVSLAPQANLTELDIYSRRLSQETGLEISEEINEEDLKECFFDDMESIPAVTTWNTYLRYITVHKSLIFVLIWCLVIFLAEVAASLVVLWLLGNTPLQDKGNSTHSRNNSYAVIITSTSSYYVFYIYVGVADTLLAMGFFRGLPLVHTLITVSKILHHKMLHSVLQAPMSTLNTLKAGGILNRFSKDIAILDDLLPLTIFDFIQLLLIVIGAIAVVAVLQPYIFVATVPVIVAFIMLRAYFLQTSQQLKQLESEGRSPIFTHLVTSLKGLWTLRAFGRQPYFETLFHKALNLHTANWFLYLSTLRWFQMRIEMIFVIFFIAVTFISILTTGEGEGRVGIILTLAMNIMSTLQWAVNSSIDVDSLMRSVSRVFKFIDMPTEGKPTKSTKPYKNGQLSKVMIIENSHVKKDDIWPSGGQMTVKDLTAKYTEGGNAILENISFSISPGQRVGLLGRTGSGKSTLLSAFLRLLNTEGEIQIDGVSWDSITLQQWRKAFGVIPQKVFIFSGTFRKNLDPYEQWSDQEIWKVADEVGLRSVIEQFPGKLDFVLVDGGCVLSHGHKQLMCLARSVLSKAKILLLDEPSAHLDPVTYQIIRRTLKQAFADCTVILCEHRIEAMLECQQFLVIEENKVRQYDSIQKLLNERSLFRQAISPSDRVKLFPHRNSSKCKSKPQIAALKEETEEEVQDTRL

Consider `COC1CCN(C2CCN(c3cc(C(=O)NS(=O)(=O)N(C)C)nc4c3c(C3CCC3)nn4-c3ccc(F)cc3)CC2)CC1` [GLPG2737], for which, on F508del CFTR, the “Band C (mature complex-glycosylated F508del CFTR)” value is on record as “confirmed”. Further, the “wild type CFTR activity” value at wild type CFTR (24 h incubation with a dose range, 100 nM FSK) is “dose dependent decrease”. In addition, the “wild type channel activity” value at wild type CFTR (acute addition together with forskolin (100 nM)) is listed as “decrease”.
